This is an account of results in PubChem BioAssay AID256 (DTP/NCI, 2004).

The test system of the assay is CD2F1 mice, L1210 leukemia ip, survival T/C. Put plainly: NCI In Vivo Anticancer Drug Screen. Data for tumor model L1210 Leukemia (intraperitoneal) in CD2F1 (CDF1) mice. The settings on record: higher = longer survival. The procedure:
The antitumor activity of compounds was measured in mice bearing transplantable tumors. Survival or tumor size were measured and the results are expressed as the measurement made in the treated group (T) divided by the measurement made in the vehicle treated control group (C). The tumor model used in this assay is L1210 Leukemia (intraperitoneal) in CD2F1 (CDF1) mice

[1] abbreviates: endpoint: mean survival time, dose: 100.0 mg/kg/injection, schedule: Q01DX009 (ip), vehicle: saline with Tween-80.
The mark [2] stands for this setting: endpoint: mean survival time, dose: 100.0 mg/kg/injection, schedule: Q04DX003 (ip), vehicle: saline with Tween-80.
Where [3] appears, read: endpoint: mean survival time, dose: 200.0 mg/kg/injection, schedule: Q01DX009 (ip), vehicle: saline with Tween-80.
The mark [4] stands for this setting: endpoint: mean survival time, dose: 200.0 mg/kg/injection, schedule: Q04DX003 (ip), vehicle: saline with Tween-80.
The mark [5] stands for this setting: endpoint: mean survival time, dose: 400.0 mg/kg/injection, schedule: Q01DX009 (ip), vehicle: saline with Tween-80.
[6] abbreviates: endpoint: mean survival time, dose: 400.0 mg/kg/injection, schedule: Q04DX003 (ip), vehicle: saline with Tween-80.

Structures are written as SMILES. Where “and” joins values, the source holds several entries; their conditions need not be identical. Equal values may be shown once. Inconclusive results and toxic doses are left out.

With `CC(C)N1C(=O)N(Cl)C2C1N(Cl)C(=O)N2Cl` (stereo unspecified), the T/C was 101 % of control (endpoint: median survival time, dose: 1.5 mg/kg/injection, schedule: Q01DX009 (ip), vehicle: saline with Tween-80); 102 % of control (endpoint: median survival time, dose: 3.0 mg/kg/injection, schedule: Q01DX009 (ip), vehicle: saline with Tween-80); 93 % of control (endpoint: median survival time, dose: 6.0 mg/kg/injection, schedule: Q01DX009 (ip), vehicle: saline with Tween-80); 103 % of control (endpoint: median survival time, dose: 12.0 mg/kg/injection, schedule: Q01DX009 (ip), vehicle: saline with Tween-80); 104 % of control (endpoint: median survival time, dose: 24.0 mg/kg/injection, schedule: Q01DX009 (ip), vehicle: saline with Tween-80); 100 % of control (endpoint: median survival time, dose: 25.0 mg/kg/injection, schedule: Q01DX009 (ip), vehicle: saline with Tween-80).

For the compound `C/C=C(/C(=O)OC)c1ccc([N+](=O)[O-])cc1`, the T/C runs as follows: under setting [1], 94 % of control; under setting [2], 92 % of control; under setting [3], 95 % of control; under setting [4], 94 % of control; under setting [5], 94 % of control; under setting [6], 92 % of control.

Take `CCCCCCCC(=O)Nc1ccc(CC)cc1`: the T/C was 107 % of control under setting [1]; 95 % of control under setting [2]; 105 % of control under setting [3]; 103 % of control under setting [4]; 107 % of control under setting [5]; 93 % of control under setting [6].

For the compound `O=c1ccn(C2CC(O)C(CO)O2)cc1` (stereo unspecified), the T/C runs as follows: (endpoint: mean survival time, dose: 100.0 mg/kg/injection, schedule: Q01DX005 (ip), vehicle: saline) 101 % of control; (endpoint: mean survival time, dose: 200.0 mg/kg/injection, schedule: Q01DX005 (ip), vehicle: saline) 100 % of control.

As for `Oc1ccccc1NC(=S)Nc1ccccc1`, the T/C reads like this: (endpoint: mean survival time, dose: 100.0 mg/kg/injection, schedule: Q01DX001 (ip), vehicle: saline) 102 % of control; (endpoint: mean survival time, dose: 200.0 mg/kg/injection, schedule: Q01DX001 (ip), vehicle: saline) 98 % of control; (endpoint: mean survival time, dose: 400.0 mg/kg/injection, schedule: Q01DX001 (ip), vehicle: saline) 100 % of control.

With `O/N=c1/ccn(O)c2ccccc12`, the T/C (endpoint: mean survival time, dose: 0.25 mg/kg/injection, schedule: Q03HX024 (ip), vehicle: saline) is 104 % of control; the T/C (endpoint: mean survival time, dose: 0.5 mg/kg/injection, schedule: Q03HX008 (ip), vehicle: saline) was 112 % of control; the T/C (endpoint: mean survival time, dose: 0.5 mg/kg/injection, schedule: Q03HX016 (ip), vehicle: saline) is 104 % of control; the T/C (endpoint: mean survival time, dose: 0.5 mg/kg/injection, schedule: Q03HX024 (ip), vehicle: saline) was 116 % of control; the T/C (endpoint: mean survival time, dose: 1.0 mg/kg/injection, schedule: Q01DX009 (ip), vehicle: saline) is 123 % of control; the T/C (endpoint: mean survival time, dose: 1.0 mg/kg/injection, schedule: Q03HX008 (ip), vehicle: saline) was 113 % of control. Moreover, the T/C by setting is: (endpoint: mean survival time, dose: 1.0 mg/kg/injection, schedule: Q03HX016 (ip), vehicle: saline) 113 % of control; (endpoint: mean survival time, dose: 2.0 mg/kg/injection, schedule: Q03HX024 (ip), vehicle: saline) 123 % of control; (endpoint: mean survival time, dose: 16.0 mg/kg/injection, schedule: Q01DX001 (ip), vehicle: saline) 124 % of control; (endpoint: mean survival time, dose: 16.0 mg/kg/injection, schedule: Q04DX003 (ip), vehicle: saline) 96 % of control; (endpoint: mean survival time, dose: 16.0 mg/kg/injection, schedule: Q08DX002 (ip), vehicle: saline) 109 % of control; (endpoint: mean survival time, dose: 32.0 mg/kg/injection, schedule: Q08DX002 (ip), vehicle: saline) 88 % of control.

In the case of `Cc1cc(N(C)C)c(C)cc1N=Nc1cc[n+]([O-])cc1`, the T/C by setting is: (endpoint: mean survival time, dose: 56.3 mg/kg/injection, schedule: Q04DX002 (ip), vehicle: saline with Tween-80) 96 % of control; (endpoint: mean survival time, dose: 113.0 mg/kg/injection, schedule: Q04DX002 (ip), vehicle: saline with Tween-80) 92 % of control.

Take `O=C(O)CO.[NH2-].[NH2-].[Pt+2]`: the T/C (endpoint: median survival time, dose: 20.0 mg/kg/injection, schedule: Q04DX003 (ip), vehicle: saline) was 192 % of control and 238 % of control; the T/C (endpoint: median survival time, dose: 40.0 mg/kg/injection, schedule: Q04DX003 (ip), vehicle: saline) was 182 % of control and 340 % of control; the T/C (endpoint: median survival time, dose: 80.0 mg/kg/injection, schedule: Q04DX003 (ip), vehicle: saline) is 98 % of control and 102 % of control.

As to `CC1(C)CC(NC(=O)CSc2ncnc3c2ncn3C2OC(CO)C(O)C2O)CC(C)(C)N1O` (stereo unspecified), the T/C reads like this: (endpoint: mean survival time, dose: 12.5 mg/kg/injection, schedule: Q01DX005 (ip), vehicle: water) 96 % of control; (endpoint: mean survival time, dose: 25.0 mg/kg/injection, schedule: Q01DX005 (ip), vehicle: water) 94 % of control; (endpoint: mean survival time, dose: 50.0 mg/kg/injection, schedule: Q01DX005 (ip), vehicle: water) 94 % of control; (endpoint: mean survival time, dose: 100.0 mg/kg/injection, schedule: Q01DX005 (ip), vehicle: water) 102 % of control; (endpoint: mean survival time, dose: 200.0 mg/kg/injection, schedule: Q01DX005 (ip), vehicle: water) 96 % of control.

Consider `CCOC(=O)C(O)C(C)(Cl)c1ccccc1` (stereo unspecified), for which the T/C is 98 % of control (endpoint: mean survival time, dose: 25.0 mg/kg/injection, schedule: Q04DX002 (ip), vehicle: saline with Tween-80); 102 % of control (endpoint: mean survival time, dose: 50.0 mg/kg/injection, schedule: Q04DX002 (ip), vehicle: saline with Tween-80); 95 % of control (endpoint: mean survival time, dose: 100.0 mg/kg/injection, schedule: Q04DX002 (ip), vehicle: saline with Tween-80); 95 % of control (endpoint: mean survival time, dose: 200.0 mg/kg/injection, schedule: Q04DX002 (ip), vehicle: saline with Tween-80).

Turning to `Cc1ccc(S(=O)(=O)OCC(O)C(O)C(O)C(O)C=O)cc1` (stereo unspecified) (tested in a mixture with another compound), the T/C under setting [1] is 103 % of control, the T/C under setting [3] is 95 % of control and the T/C under setting [5] is 112 % of control.

Take `Nc1ccc(Nc2ccccc2C(=O)O)cc1`: the T/C by setting is: (endpoint: mean survival time, dose: 50.0 mg/kg/injection, schedule: Q01DX009 (ip), vehicle: saline with Tween-80) 95 % of control; under setting [1], 103 % of control; under setting [2], 105 % of control; under setting [4], 97 % of control.
